Measurements published in publication doi:10.1101/2024.08.19.608619, “Discovery of potent SARS-CoV-2 nsp3 macrodomain inhibitors uncovers lack of translation to cellular antiviral response” (bioRxiv, 2024).

Legend:
H1 (h) = target: T1, H1 (h) (Homo sapiens, UniProt P35367); assay: In vitro CEREP profiling, H1 (h) (antagonist radioligand); assay type: binding; conditions: test compound concentration 10 uM
T1 construct: purchased Eurofins Cerep (SafetyScreen44), recognised from the panel format
From the text: (§1) Supplement media-1.zip/Safety_Panel_Profile.csv, table | column: perc_inhibition

beta1 (h) = target: T2, beta1 (h) (Homo sapiens, UniProt P08588); assay: In vitro CEREP profiling, beta1 (h) (agonist radioligand); assay type: binding; conditions: test compound 10 uM
T2 construct: purchased Eurofins Cerep (SafetyScreen44), recognised from the panel format
T2 sequence (P08588 whole entry): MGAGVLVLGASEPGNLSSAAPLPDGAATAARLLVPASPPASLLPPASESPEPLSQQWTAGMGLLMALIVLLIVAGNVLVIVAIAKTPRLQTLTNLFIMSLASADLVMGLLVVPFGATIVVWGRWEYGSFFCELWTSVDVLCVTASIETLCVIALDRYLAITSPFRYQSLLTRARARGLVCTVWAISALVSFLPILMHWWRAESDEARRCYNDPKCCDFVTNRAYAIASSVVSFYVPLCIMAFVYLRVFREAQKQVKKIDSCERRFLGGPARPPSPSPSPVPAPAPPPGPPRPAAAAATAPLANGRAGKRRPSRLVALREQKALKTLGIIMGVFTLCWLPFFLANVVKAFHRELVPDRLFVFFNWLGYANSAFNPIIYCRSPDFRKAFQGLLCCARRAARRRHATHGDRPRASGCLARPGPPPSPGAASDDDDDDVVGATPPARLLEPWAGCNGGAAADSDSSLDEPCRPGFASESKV
From the text: as §1

[1] = target: T3, N neuronal alpha4beta2 (h) (Homo sapiens, UniProt P17787+P43681); assay: In vitro CEREP profiling, N neuronal alpha4beta2 (h) (agonist radioligand); assay type: binding; conditions: test compound concentration 10 uM
T3 construct: purchased Eurofins Cerep (SafetyScreen44), recognised from the panel format
T3 sequence (P43681 29-627 limits assumed): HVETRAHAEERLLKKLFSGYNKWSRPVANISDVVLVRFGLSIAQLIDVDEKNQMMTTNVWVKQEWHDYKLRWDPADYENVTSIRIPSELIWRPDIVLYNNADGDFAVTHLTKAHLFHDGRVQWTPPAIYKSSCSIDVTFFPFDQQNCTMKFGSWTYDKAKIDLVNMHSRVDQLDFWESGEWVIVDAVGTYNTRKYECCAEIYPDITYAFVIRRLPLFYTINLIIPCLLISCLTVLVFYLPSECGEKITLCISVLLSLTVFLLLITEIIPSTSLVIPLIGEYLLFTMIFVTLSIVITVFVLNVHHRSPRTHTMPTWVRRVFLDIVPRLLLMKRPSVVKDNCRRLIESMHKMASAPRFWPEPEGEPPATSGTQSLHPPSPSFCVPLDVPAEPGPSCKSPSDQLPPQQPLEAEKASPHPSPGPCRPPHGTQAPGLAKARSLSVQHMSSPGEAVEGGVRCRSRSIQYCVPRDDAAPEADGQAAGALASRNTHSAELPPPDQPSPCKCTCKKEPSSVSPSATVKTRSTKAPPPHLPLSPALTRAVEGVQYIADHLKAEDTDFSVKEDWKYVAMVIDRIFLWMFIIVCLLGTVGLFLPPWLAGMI
T3 sequence (P17787 26-502): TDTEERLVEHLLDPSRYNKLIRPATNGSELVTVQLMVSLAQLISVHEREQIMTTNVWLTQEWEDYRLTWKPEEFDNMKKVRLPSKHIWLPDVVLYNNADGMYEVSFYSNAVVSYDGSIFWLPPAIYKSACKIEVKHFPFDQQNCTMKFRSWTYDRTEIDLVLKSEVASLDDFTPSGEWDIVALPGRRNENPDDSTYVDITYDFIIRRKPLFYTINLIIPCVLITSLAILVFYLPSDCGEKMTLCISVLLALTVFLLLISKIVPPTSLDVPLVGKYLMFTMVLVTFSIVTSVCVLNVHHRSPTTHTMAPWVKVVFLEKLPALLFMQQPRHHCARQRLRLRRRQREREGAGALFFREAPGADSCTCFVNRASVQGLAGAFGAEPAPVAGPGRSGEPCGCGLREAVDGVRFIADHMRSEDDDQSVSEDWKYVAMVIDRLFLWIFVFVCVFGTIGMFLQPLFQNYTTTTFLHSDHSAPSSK
From the text: as §1

V1a (h) = target: T4, V1a (h) (Homo sapiens, UniProt P37288); assay: In vitro CEREP profiling, V1a (h) (agonist radioligand); assay type: binding; conditions: test compound concentration 10 uM
T4 construct: purchased Eurofins Cerep (SafetyScreen44), recognised from the panel format
T4 sequence (P37288 whole entry): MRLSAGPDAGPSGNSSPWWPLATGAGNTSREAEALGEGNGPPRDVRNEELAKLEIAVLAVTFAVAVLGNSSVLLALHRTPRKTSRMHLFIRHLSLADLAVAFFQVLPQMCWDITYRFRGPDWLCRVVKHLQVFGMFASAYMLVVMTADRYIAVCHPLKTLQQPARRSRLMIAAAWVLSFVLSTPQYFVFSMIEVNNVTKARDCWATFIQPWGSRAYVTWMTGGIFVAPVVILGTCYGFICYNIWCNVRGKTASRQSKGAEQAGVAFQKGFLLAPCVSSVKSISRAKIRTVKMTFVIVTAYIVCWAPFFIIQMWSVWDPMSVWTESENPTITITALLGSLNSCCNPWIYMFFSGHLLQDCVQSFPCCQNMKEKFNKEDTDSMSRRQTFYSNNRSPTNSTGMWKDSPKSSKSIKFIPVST
From the text: as §1

5-HT1B (h) = target: T5, 5-HT1B (h) (Homo sapiens, UniProt P28222); assay: In vitro CEREP profiling, 5-HT1B (h) (antagonist radioligand); assay type: binding; conditions: test compound concentration 10 uM
T5 construct: purchased Eurofins Cerep (SafetyScreen44), recognised from the panel format
T5 sequence (P28222 whole entry): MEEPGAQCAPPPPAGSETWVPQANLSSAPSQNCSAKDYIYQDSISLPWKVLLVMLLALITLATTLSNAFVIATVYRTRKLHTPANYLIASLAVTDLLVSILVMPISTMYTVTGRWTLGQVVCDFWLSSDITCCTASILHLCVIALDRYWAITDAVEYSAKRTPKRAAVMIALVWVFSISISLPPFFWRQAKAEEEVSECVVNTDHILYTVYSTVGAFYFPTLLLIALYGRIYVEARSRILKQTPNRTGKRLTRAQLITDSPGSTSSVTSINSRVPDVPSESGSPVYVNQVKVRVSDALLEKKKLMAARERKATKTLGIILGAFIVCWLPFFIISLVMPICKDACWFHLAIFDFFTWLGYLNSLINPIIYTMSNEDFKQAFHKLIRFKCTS
From the text: as §1

[2] = In vitro dog liver microsomal stability; assay type: in vitro ADME
From the text: Supplement media-1.zip/Hepatic_Microsomal_Stability.csv, table | column: clint; t_half

SARS-CoV-2 nsp3-mac1 = SARS-CoV-2 nsp3-mac1 (Severe acute respiratory syndrome coronavirus 2, UniProt P0DTD1); assay: biochemical; conditions: HTRF IC50, Figure 6, tool compounds
Nsp3-mac1 = Nsp3-mac1 (Severe acute respiratory syndrome coronavirus 2, UniProt P0DTD1); assay: ADPr hydrolase assay (LC-MS/MS); assay type: biochemical, SARS-CoV-2; conditions: Nsp3-mac1 200 nM, αNAD+ 8 μM
Protocol: ADPr hydrolase activity assay was conducted in 96-well plate with pre-dispensed compounds in 8-point dose response starting from 4 μM (control wells were backfilled with DMSO). […] Nsp3-mac1 200 nM in final assay concentration was added to all wells besides “NAD+ alone” well. The plate was centrifuged at 1,500 rpm for 1 min, and then Incubated at room temperature for 15 min. After incubation, αNAD+ in final concentration of 8 μM were added to each well, and the plate was centrifuged again for 1 min. Then, the plate was incubated under shaking at room temperature for 2.45 h, followed by freezing at −80°C until LC-MS/MS analysis.
A 30-μl sample aliquot was mixed with 90 μl of methanol and 1μl of 50 μM 15N5-AMP (an internal standard). The mix was shaken for 10 min, then centrifuged (~21,000 g) for 5 min to precipitate the protein. […]
Mass detection was carried out using electrospray ionization in the positive mode. […] Analytes were detected using multiple reaction monitoring (MRM, m/z) with the following precursor and fragment masses at selected collision energy (eV, indicated in brackets): 560 > 136 (34) and 560 > 348 ([16]) for ADPR, 664 > 524 ([15]) and 664 > 541.7 ([15]) for αNAD+, 353.1 > 97 ([28]) and 353.1 > 141 ([20]) for […] (IS) m/z. […]

SARS-CoV-2 = assay: Antiviral effect in iPSC-derived pneumocyte system; assay type: cell-based; conditions: iPSC pneumocytes SARS-CoV-2 antiviral effect; for perc_max_measured: maximum measured response of dose series; for perc_min_measured: minimum measured response of dose series
iPSC pneumocytes = iPSC pneumocytes cytotoxicity; assay type: cell-based; conditions: for perc_max_measured: highest measured response of the dose series; for perc_min_measured: lowest measured response of the dose series
From the text: (§2) Supplement media-1.zip/Cytotoxicity.csv, table | column: cc10; cc50; perc_min_measured; perc_max_measured

[3] = Vero E6/TMPRSS2 cytotoxicity with P-gp inhibitor; assay type: cell-based; conditions: African green monkey, Vero E6/TMPRSS2 cells, with P-gp inhibitor (name and concentration not stated)
From the text: as §2

in vitro = conditions: human, HeLa-ACE2 cells (uninfected)
MDR1 = assay: Permeability Papp (AB) MDR1/MDCKII; conditions: dog; for Papp A→B: A to B
hERG = hERG (Homo sapiens, UniProt Q12809); assay: In vitro CEREP profiling, Potassium Channel hERG (human)- [3H] Dofetilide; assay type: binding; set-up: purchased Eurofins Cerep (SafetyScreen44), recognised from the panel format; conditions: hERG potassium channel binding assay, probe [3H] Dofetilide, test compound concentration 10 uM, read-out: perc_inhibition, % inhibition of the binding of a ligand specific for each target
Sequence of hERG (Q12809 whole entry): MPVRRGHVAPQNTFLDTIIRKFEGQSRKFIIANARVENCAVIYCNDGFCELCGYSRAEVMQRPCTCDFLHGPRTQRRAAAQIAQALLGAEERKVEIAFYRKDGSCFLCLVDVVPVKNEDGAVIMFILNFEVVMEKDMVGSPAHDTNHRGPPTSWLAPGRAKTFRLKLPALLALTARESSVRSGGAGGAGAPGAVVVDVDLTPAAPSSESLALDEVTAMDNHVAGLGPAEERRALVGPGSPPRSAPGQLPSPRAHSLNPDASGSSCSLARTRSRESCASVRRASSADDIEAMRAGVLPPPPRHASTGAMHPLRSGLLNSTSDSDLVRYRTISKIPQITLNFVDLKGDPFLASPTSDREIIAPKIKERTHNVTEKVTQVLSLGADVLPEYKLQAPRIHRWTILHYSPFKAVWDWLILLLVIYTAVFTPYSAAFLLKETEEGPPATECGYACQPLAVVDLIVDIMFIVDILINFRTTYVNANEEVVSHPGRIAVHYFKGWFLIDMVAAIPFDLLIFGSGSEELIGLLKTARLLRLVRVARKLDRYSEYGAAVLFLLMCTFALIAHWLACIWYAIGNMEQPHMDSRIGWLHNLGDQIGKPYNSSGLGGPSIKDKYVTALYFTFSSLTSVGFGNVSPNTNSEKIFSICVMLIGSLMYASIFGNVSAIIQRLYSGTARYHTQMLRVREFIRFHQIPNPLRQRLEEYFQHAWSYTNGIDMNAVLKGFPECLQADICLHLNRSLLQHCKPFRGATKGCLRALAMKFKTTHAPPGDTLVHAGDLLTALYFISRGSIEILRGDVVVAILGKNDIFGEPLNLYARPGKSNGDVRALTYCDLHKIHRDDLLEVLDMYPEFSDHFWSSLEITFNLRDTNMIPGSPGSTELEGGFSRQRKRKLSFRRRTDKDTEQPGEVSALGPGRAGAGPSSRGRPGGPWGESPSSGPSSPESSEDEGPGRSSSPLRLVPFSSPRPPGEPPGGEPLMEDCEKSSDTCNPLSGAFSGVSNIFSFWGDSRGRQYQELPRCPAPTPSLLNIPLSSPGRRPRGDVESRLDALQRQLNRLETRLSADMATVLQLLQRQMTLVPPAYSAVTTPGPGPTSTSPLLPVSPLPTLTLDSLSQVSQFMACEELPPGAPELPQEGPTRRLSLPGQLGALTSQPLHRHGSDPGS
From the text: as §1

5-HT transporter (h) = target: T6, 5-HT transporter (h) (Homo sapiens, UniProt P31645); assay: In vitro CEREP profiling, 5-HT transporter (h) (antagonist radioligand); assay type: binding; conditions: test compound concentration 10 uM
T6 construct: purchased Eurofins Cerep (SafetyScreen44), recognised from the panel format
T6 sequence (P31645 whole entry): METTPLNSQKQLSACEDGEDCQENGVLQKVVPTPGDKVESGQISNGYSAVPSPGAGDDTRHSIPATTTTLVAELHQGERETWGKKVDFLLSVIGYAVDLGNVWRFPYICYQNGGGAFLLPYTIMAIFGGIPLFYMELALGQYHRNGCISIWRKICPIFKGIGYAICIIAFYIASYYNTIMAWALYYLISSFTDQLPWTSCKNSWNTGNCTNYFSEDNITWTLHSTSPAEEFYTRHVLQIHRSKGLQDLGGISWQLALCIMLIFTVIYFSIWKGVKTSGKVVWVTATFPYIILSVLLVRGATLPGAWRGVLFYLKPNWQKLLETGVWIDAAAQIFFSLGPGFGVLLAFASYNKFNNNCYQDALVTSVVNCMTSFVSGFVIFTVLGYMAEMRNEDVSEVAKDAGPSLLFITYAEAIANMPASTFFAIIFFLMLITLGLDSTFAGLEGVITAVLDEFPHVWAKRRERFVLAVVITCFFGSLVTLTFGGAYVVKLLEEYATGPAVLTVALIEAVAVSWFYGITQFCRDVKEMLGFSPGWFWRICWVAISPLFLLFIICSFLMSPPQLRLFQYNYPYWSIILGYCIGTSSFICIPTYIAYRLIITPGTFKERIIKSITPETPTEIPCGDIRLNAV
From the text: as §1

[4] = Severe acute respiratory syndrome coronavirus 2
[5] = read-out: perc_inhibition (% inhibition of the binding of a ligand specific for each target)

T1 sequence (P35367 whole entry): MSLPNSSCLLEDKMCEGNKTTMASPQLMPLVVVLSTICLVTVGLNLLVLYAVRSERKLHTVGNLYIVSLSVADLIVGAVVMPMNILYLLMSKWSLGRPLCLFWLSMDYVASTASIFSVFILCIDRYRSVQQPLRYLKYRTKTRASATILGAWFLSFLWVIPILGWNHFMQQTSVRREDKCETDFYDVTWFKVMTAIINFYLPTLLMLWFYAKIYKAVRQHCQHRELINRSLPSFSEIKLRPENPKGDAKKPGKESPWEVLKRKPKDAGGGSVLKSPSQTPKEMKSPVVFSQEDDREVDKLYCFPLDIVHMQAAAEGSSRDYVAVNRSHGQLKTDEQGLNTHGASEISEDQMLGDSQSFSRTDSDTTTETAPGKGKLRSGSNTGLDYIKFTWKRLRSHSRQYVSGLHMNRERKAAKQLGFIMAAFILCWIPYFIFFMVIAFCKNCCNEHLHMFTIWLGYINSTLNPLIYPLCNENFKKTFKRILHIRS

Row | SMILES | perc_inhibition (% inhibition of the binding of a ligand specific for each target) (H1 (h)) [%] | perc_inhibition (% inhibition of the binding of a ligand specific for each target) (beta1 (h)) [%] | perc_inhibition (% inhibition of the binding of a ligand specific for each target) [1] [%] | perc_inhibition (% inhibition of the binding of a ligand specific for each target) (V1a (h)) [%] | perc_inhibition (% inhibition of the binding of a ligand specific for each target) (5-HT1B (h)) [%] | clint [2] [µL/min/mg] | t_half [2] [min] | perc_max_measured (SARS-CoV-2) [%] | perc_min_measured (SARS-CoV-2) [%] | perc_max_measured (iPSC pneumocytes) [%] | perc_min_measured (iPSC pneumocytes) [%] | perc_inhibition (% inhibition of the binding of a ligand specific for each target) (5-HT transporter (h)) [%] | further results
1 | CC(C)[C@@H](Nc1ncnc2[nH]c(-c3cnn(C)c3C#N)cc12)c1ccc2c(n1)OCCO2 [ASAP-0010716] | 0 | -2 | -2 | 20 | 4 | 23.2 | 29.8 |  |  |  |  |  | 
2 | CC(C)C(Nc1ncnc2[nH]c(C(=O)NC3CCN(C)C3)cc12)c1ccc2c(c1)S(=O)(=O)CCC2 (centres unmarked) [ASAP-0011198] |  |  |  |  |  |  | > 139.0 | 101.646 | 52.305 | 99.57 | 87.748 |  | IC50 (SARS-CoV-2 nsp3-mac1): 65 nM; IC50 (Nsp3-mac1): 420 nM; EC50 (SARS-CoV-2; [4]): > 50 µM; EC90 (SARS-CoV-2; [4]): > 50 µM; inhibition at 10 µM (H1 (h); [5]): 2%; CC50 [3]: > 5 µM; inhibition at 10 µM (beta1 (h); [5]): 4%; inhibition at 10 µM [1, 5]: -2%; inhibition at 10 µM (V1a (h); read-out: perc_inhibition, % inhibition of the binding of a ligand specific for each target): 6%; inhibition at 10 µM (5-HT1B (h); [5]): 17%; microsomal CLint ([2]; liver microsomes): < 5 µL/min/mg; CC50 at 24 h (in vitro): > 20 µM; efflux ratio (MDR1; MDCK-MDR1, efflux_ratio, In vitro MDR1-MDCKII permeability, no inhibitor): 1.3; Papp A→B (MDR1; MDCK-MDR1, papp_a_to_b_mean, In vitro MDR1-MDCKII permeability, mean): 2.94 ×10⁻⁶ cm/s; Papp A→B (MDR1; MDCK-MDR1, papp_a_to_b_mean, In vitro MDR1-MDCKII permeability, no inhibitor): 0.0323 ×10⁻⁶ cm/s; Papp B→A (MDR1; MDCK-MDR1, papp_b_to_a_mean, In vitro MDR1-MDCKII permeability, B to A, no inhibitor): 0.0411 ×10⁻⁶ cm/s; efflux ratio (MDR1; MDCK-MDR1, with Cyclosporin A, efflux_ratio_inhibitor, MDR1-MDCKII, with inhibitor Cyclosporin A): 1.7; Papp A→B (MDR1; MDCK-MDR1, with Cyclosporin A, papp_a_to_b_inhibitor_mean, MDR1-MDCKII, with inhibitor Cyclosporin A): < 0.01 ×10⁻⁶ cm/s; inhibition at 10 µM (hERG): 7%
3 | COc1ccc([C@H](Cc2nnn[nH]2)NC(=O)c2ncnc3[nH]ccc23)cc1 [ASAP-0015381] | -4 | -3 | 4 | 5 | -14 | < 5.0 | > 139.0 |  |  |  |  | -1 | 
4 | CNCc1cc(-c2cc3c(N[C@@H](c4ccc5c(c4)S(=O)(=O)CCC5)C(C)C)ncnc3[nH]2)co1 [ASAP-0011176] | -3 | -4 | 0 | 13 | 45 | 20.0 | 34.7 | 92.989 | 2.106 | 97.309 | 86.868 |  | EC50 (SARS-CoV-2): 3.34 µM; EC90 (SARS-CoV-2): > 50 µM; CC50 (iPSC pneumocytes): > 50 µM; cc10 (iPSC pneumocytes): > 50.0 µM
5 | C[C@H](C(=O)O)[C@@H](NC(=O)c1ncnc2[nH]ccc12)c1ccc(Br)cc1 [ASAP-0014722] | -8 | -5 | 0 | 62 | 1 | < 5.0 | > 139.0 |  |  |  |  | 0 | 
